Data reported in patent publication US11433075B2, “Methods of treating glioblastoma” (TriAct Therapeutics, Inc., priority 2017, dated 2022).
Where two headings read alike, the source gives them in different places.

How the values were obtained:
[1] = tested on: adult patients with newly diagnosed glioblastoma multiforme (GBM); test: Phase II GBM trial (ABTC0703): overall survival; format: in vivo, human
Experimental: 76 patients were recruited for this study.
The following treatment schema (also see FIG. 2).
RT: 60 Gy (total) TMZ: Daily 75 mg/m^2
BSI-201: once per day, twice a week (8.0 mg/kg IV q2 wk)
Rest (4 weeks) with no treatment.
Maintenance Cycles 1-6 (4 weeks)
BSI-201: once per day, twice a week (8.6 mg/kg IV q2 wk)
(§1) For assessing the efficacy of the treatment in terms of overall survival, the overall failure rate were estimated and compared to the failure rate of 0.6 per-person year of follow-up regarding the Phase III trial done by Stupp et al. in the same patient population treated with RT plus concomitant and adjuvant temozolomide.
The primary endpoint was death due to all causes. The survival time is defined from time of histological diagnosis to death occurrence. The overall failure rate was expressed as hazard of failure per person-year of follow-up. The total patient population for this part of the study was defined as all patients who have met the eligibility criteria, not met ineligibility criteria, and signed patient informed consent.
It yield above 90% power to detect a 30% reduction in hazard rate with observed hazard ratio of 0.7 (0.42 vs. 0.6) at an alpha level of 0.1 to be significant. The overall failure rate was estimated by dividing the number of events (deaths) by the total exposure time in the study cohort along with 95% confidence intervals. Survival probability and median time of survival was calculated using Kaplan-Meier method.

[2] = tested on: newly diagnosed GBM patients; test: Phase I GBM study: safety, DLT, MTD, adverse events; format: in vivo, human
Experimental: Study Group 1 Treatment Cycles 4 weeks each (N=23)
Study Group 2 Treatment Cycles 10 weeks each (N=20)
No cytochrome P450-inducing anticonvulsants. However, Gliadel was permitted.
Group 1: TMZ (150-200 mg/m^2 given 5 days/month×6 cycles)—standard dose with BSI-201 starting at 5.1 mg/kg.
Group 2: TMZ (75 mg/m^2 daily 42 days on 30 days off×3 cycles)—metronomic dose with BSI-201 starting at 5.1 mg/kg.
Using modified continual reassessment method, MTD was defined for metronomic and standard dose TMZ. 6 dose levels were tested (lowest 5.1 mg/kg-highest 9.5 mg/kg IV 2×/wk). […] The DLTs across both groups were: rash (1), hypersensitivity reaction (1), fatigue (1) and a thromboembolic event (1). […] Phase 2 dose defined as 8 mg/kg IV 2×/wk with standard TMZ and 8.6 mg/kg IV 2×/wk with metronomic TMZ.

[3] = human, in vivo, iv
Source text: It was a single arm, multi dose, dose escalating trial in newly diagnosed GBM patients. The total number of patients was 43, with about 5 patients per cohort. Patients who tolerated radiation (XRT) and temozolomide (TMZ) were recruited. Inclusion criteria included completion of XRT and TMZ without grade 3 or 4 toxicity and labs within acceptable range within 6 weeks of completing XRT. The end points included safety, maximum tolerated dose (MTD), and signal of activity.
The patients were separated into two study groups with the following treatment schema (also see FIG. 1).
Continuous Reassessment Method (CRM) was used to determine dose escalation. PK was drawn at cycle 1, 2, 3 and off treatment. PD via PBMCs was drawn at cycle 1, 2, 3 and off treatment. No cytochrome P450-inducing anticonvulsants. However, Gliadel was permitted.
Dosing is IV 2×/week continuous.

[4] = tested on: same patient population (newly diagnosed GBM); test: EORTC Phase III trial, Stupp et al. 2005 (RT plus concomitant and adjuvant temozolomide); format: in vivo, human; settings: 2005 n = 287, conversion
Source text: as §1

[5] = tested on: same patient population (newly diagnosed GBM); settings: Stupp et al, 2005 (RT + temozolomide); cited from earlier work
[6] = tested on: GBM patients; test: RTOG 0525 trial, 2013 (STD and DD arms); format: in vivo, human; settings: conversion

With `NC(=O)c1ccc(I)c([N+](=O)[O-])c1` [Iniparib, 4-iodo-3-nitrobenzamide] the “Median Overall Survival, mOS, MGMT methylated” value ([1]; ABTC0703, n = 29) was 27 (n = 29) Months, the “Median Overall Survival, mOS, MGMT unmethylated” value ([1]; ABTC0703, n = 37) was 15.8 (n = 37) Months and the “Hazard Rate (per person year of follow-up)” value ([1]; ABTC0703 n = 76, hazard rate of death) was 0.403 per person year of follow-up. For the same molecule, the “Median Overall Survival Months, (95% CI)” value ([1]; ABTC0703 n = 76, iniparib + RT + TMZ, then iniparib + TMZ maintenance) was 21.6 (16.1-23.7) Months, the “Comparison with RTOG 0525 (2013)” value ([1]; extrapolated and not pre-planned analysis) was “improved” and the “Reduction of HR versus Stupp et al 2005” value ([1]; single arm phase 2, efficacy endpoint met) was at least 25%. The “Phase 2 dose” value ([2]; IV 2×/wk with metronomic TMZ) was 8.6 mg/kg, the “Phase 2 dose” value ([2]; IV 2×/wk with standard TMZ) was 8 mg/kg and the “DLT: fatigue (number)” value ([2]; human, in vivo) was 1. For the same molecule, the “DLT: hypersensitivity reaction (number)” value ([2]; human, in vivo) was 1, the “DLT: rash (number)” value ([2]; human, in vivo) was 1 and the “DLT: thromboembolic event (number)” value ([2]; human, in vivo) was 1. For the same molecule, the White counts decreased ([2]; human, in vivo) was 22 (51) No. (% of pts).

With `NC(=O)c1ccc(I)c(N)c1` [IABM] the Cmax ([3]; 5.1 mg/kg) was 5.7 ± 4.1 ng/mL, the Cmax ([3]; 6.1 mg/kg) was 7.2 ± 1.8 ng/mL and the Cmax ([3]; 6.8 mg/kg) was 8.4 ± 3.7 ng/mL. For the same molecule, the Cmax ([3]; 8 mg/kg) was 10.3 ± 2.9 ng/mL, the Cmax ([3]; 8.6 mg/kg) was 9.7 ± 2.4 ng/mL and the Cmax ([3]; 9.5 mg/kg) was 13.6 ± 5.3 ng/mL.

In the case of `Cn1nnc2c(C(N)=O)ncn2c1=O` [temozolomide], the “Hazard Rate (per person year of follow-up)” value [4] is listed as 0.6 per person year of follow-up, the “Neutrophil Count Decreased” value [5] is listed as 7% and the “Platelet Count Decreased” value [5] is listed as 12%. The “White Blood Cell Decreased” value [5] was 7%, the “Hazard Rate (per person year of follow-up)” value ([6]; RTOG 0525, 2013 DD arm, n = 422) was 0.558 per person year of follow-up and the “Hazard Rate (per person year of follow-up)” value ([6]; RTOG 0525, 2013 STD arm, n = 411) was 0.501 per person year of follow-up.
